Data on 123 molecules can be found in the OPERA property sets (Mansouri et al. 2018).

Peptide text beside a SMILES is read from it. * marks the point of attachment. Cbz = O=C(OCc1ccccc1)*

Regarding `CS(=O)(=O)OCCCNCCCOS(C)(=O)=O`, the log partition coefficient (logP) is -1.71. Turning to `CSc1nccc(=O)[nH]1`, the logP came out at 0.22. `CC(O)COc1cccc2oc(C(=O)O)cc(=O)c12` (stereo not drawn) came in with a log partition coefficient (logP) of 1.32. With `CCC(=O)OCCOc1ccc(C=O)cc1OC` the figure was 1.33; with `NC1=NS(=O)(=O)c2ccc(Cl)cc2N1`, 0.91. The value for `COC(=O)c1cc2nc(S(=O)Cc3ncccc3C)[nH]c2cc1C` (stereo not drawn) was 2.4; that for `CCOC(=O)CCC(=O)N(C)c1cccc(S(=O)(=O)N(C)C)c1` was 0.84. The molecule `NCC(=O)NCC(=O)NCC(=O)O` had a logP of -2.68. In turn, `FC(F)(F)CN(CC(F)(F)F)c1ccc(Br)cc1` gave a logP of 4.7. `CNC(=O)Oc1cccc(Cl)c1Cl` yielded a logP of 2.48.

With `CC1=C(C(=O)O)N2C(=O)C(NC(=O)C(O)c3ccccc3)C2SC1` (stereo not drawn), the logP came out at 0.46. As for `NC(=O)N=[N+]([O-])c1ccccc1`, the logP is 0.58. For the molecule `CCCc1c(OCCCCc2nnn[nH]2)ccc(C(C)=O)c1O`, the logP worked out at 3.82. `O=C1c2ccccc2C(=O)C1(O)O` had a logP of 0.67. With `O=C(Nc1ccccc1)c1ccc(C(=O)Nc2ccccc2)cc1` the figure was 3.72; with `CCOC(=O)C(=Cc1ccc(OC)c(OC)c1)C(=O)OCC`, 2.89. For `Cc1nccnn1`, the logP was -1.31. For `CCC(=O)OCCOc1ccc(C=NO)cc1OC`, the logP worked out at 1.52.

The molecule `O=C(Nc1ccc(Cl)c(Cl)c1)C(F)(F)F` returned a logP of 3.9.

`O=C1C=CC(=NCl)C=C1` showed a logP of 1.26. `CC1=Nc2ccc(I)cc2S(=O)(=O)N1` came in with a lipophilicity (logP) of 1.61.

With `Cc1oc2cc(OCC#N)ccc2c(=O)c1C`, the logP was determined as 1.96.

The molecule `CC(=O)Nc1ccc(C(C)(C)C)cc1` had a logP of 3.05. `CS(=O)(=O)F` returned a logP of 0.55. Molecule `NC(=O)NN=Cc1ccccc1` showed a logP of 1.27.

Take `NNc1ccc(Br)cc1`: the logP is 1.39. In turn, `CCCCC1OC(=O)c2cc(N(CCO)CCO)ccc21` (stereo not drawn) came in with a logP of 1.34. With `O=C(Nc1ccc(Cl)c(Cl)c1)c1ccccc1` the figure was 4.42; with `O=C(OCCNC(=O)C(F)(F)F)c1ccccc1`, 2.25. With `COc1cc(C=NO)ccc1OCCOC(=O)COc1ccccc1` the figure was 2.1. Regarding `COc1cc(C=O)ccc1OCCOC(=O)c1ccccc1Cl`, the logP came to 3.21.

In turn, `N#CCCN(CCC#N)/N=N/c1nc[nH]c1C(N)=O` registered a logP of -0.76.

The molecule `Cc1nnc(SCc2ccccc2)o1` yielded a logP of 1.74. Molecule `COC1OC(COC(C)=O)C(OC(C)=O)C(NC(=O)N(CCCl)N=O)C1OC(C)=O` (stereo not drawn) came in with a logP of 0.67.

Molecule `CN(C(=O)CCC#N)c1ccc(S(=O)(=O)N(C)C)cc1` returned a logP of -0.17. With `CCCc1ccc2c(c1)C(=O)c1ccc(NC(C)=O)cc1S2(=O)=O` the figure was 3.51; with `O=C(CCl)Nc1ccc(Cl)c(Cl)c1`, 3.29. With `NC1=NC(C(F)(F)F)(C(F)(F)F)NC1(C(F)(F)F)C(F)(F)F` the figure was 3.35. `Cc1nnc(SCc2ccccc2)s1` had a logP of 2.35. In turn, `NC(=O)c1nc[nH]c1N=NN(CCO)Cc1ccccc1` returned a logP of 0.99. In turn, `COc1ccc2c(=O)c(C)c(C(C)C)oc2c1` had a logP of 3.39.

`CCCCOc1ccnc(C=CC2=CC([N+](=O)[O-])O2)n1` (stereo not drawn) yielded a logP of 2.04.

Take `CC(=O)NCCC(=O)N(C)c1ccc(S(=O)(=O)N(C)C)cc1`: the logP was -0.35. Molecule `CC(=O)OC[C@@H](OC(C)=O)[C@@H](OC(C)=O)[C@H](OC(C)=O)[C@H](C=O)OC(C)=O` had a logP of 0.63.

The molecule `O=c1cc(-c2ccccc2)oc2cc(O)ccc12` gave a logP of 3.62. As for `COc1cc(C=NO)ccc1OCCOC(=O)c1ccccc1OC`, the logP was 2.84. Regarding `Nc1nnc(N)[nH]1`, the logP was -1.61. In the case of `CN(Cc1ccccc1)N=Nc1[nH]cnc1C(N)=O`, the logP turned out to be 1.54. With `CCOC(=O)CON=Cc1ccc(OCCOC(=O)c2ccccc2OC)c(OC)c1`, the logP amounted to 3.27. With `N#CCC(=O)Nc1ccc(Cl)c(Cl)c1` the figure was 2.72; with `CCCCC(=O)Nc1ccc(Cl)c(Cl)c1`, 4.17. Consider `CC(=O)NN=CCCc1ccccc1`, for which the logP turned out to be 1.8. The value for `CN(C)c1ccc(C(=C2C=CC(=[N+](C)C)C=C2)c2ccc(N(C)C)cc2)cc1.[Cl-]` was 0.96; that for `CCCc1ccc(NC(C)=O)cc1` was 2.75; that for `C=CCn1c(=O)c(N(C)C)c(C)n(-c2ccccc2)c1=O` was 1.98.

`CC(=O)NNC(=O)c1ccccc1N(C)C` returned a logP of 1.49. The molecule `O=C(O)c1ccco1` gave a logP of 0.64. Take `COc1cccc(Cc2cnc(N)nc2N)c1OC`: the logP was 1.62.

Regarding `CC1CCCN(N=O)C1=O` (stereo not drawn), the logP is -0.66. Regarding `CC(Cl)C(=O)N(CC(=O)Nc1ccccc1)c1ccccc1` (stereo not drawn), the logP worked out at 3.02.

`CSc1ccc(C=NN=C(N)NN)cc1` gave a logP of 1.35. `O=C([O-])c1cc2ccccc2cc1O.[Na+]` displayed a logP of 0.17. `COc1cc(C=O)ccc1OCCO`: the logP amounted to 0.58.

`C[N+](C)(C)Cc1cccc(C(F)(F)F)c1.[Br-]` returned a logP of -1.35. `S=C(Nc1ccccc1)c1ccccc1` yielded a logP of 3.03.

In turn, `CC(C)(C)C(=O)Nc1ccc(Cl)c(Cl)c1` registered a logP of 3.88. Molecule `O=C(Cc1ccccc1)Nc1ccc(Cl)c(Cl)c1` showed a logP of 4.47.

On to `COC(=O)CCC(=O)N(C)c1ccc(S(=O)(=O)N(C)C)cc1`, for which the logP amounted to 0.43. The value for `CCCCNc1c(C)n(C)c(=O)n(-c2ccccc2)c1=O` was 1.69; that for `CCC(CC)C1=Nc2ccccc2S(=O)(=O)N1` was 1.88; that for `CCOc1cc(Cc2cnc(N)nc2N)cc(OCC)c1` was 2.52. `ON=C(c1ccccc1)c1ccccc1` had a logP of 3.2.

The molecule `CC(=O)Nc1cccc(OCc2cccc(N3C(N)=NC(N)=NC3(C)C)c2)c1` displayed a logP of 1.15. With `O=c1cn[nH]c(=O)[nH]1` the figure was -0.59; with `COc1cccc(CC(C)N)c1OC` (stereo not drawn), 1.49; with `CCCCCC1CNC(C(=O)NC(C(C)Cl)C2OC(SC)C(O)C(O)C2O)C1` (stereo not drawn), 2.74. For `CSc1ccc(NC(C)=O)cc1`, the logP is 2.03. With `CC=CC(=O)Nc1ccc(Cl)c(Cl)c1` the figure was 3.63.

As for `O=C(CCc1ccccc1)Nc1ccc(Cl)c(Cl)c1`, the logP is 4.85. For `NC(=O)c1cccnc1N`, the logP is 0.88.

The molecule `COc1cccc(OC)c1OC` displayed a logP of 1.53. In turn, `CN(Cc1ccccc1)N=Nc1ccc(C(=O)O)cc1` showed a logP of 4.04. `CCOC(=O)CC(=O)C=Cc1ccccc1C` yielded a logP of 2.66.

`CC(=O)NC1CCSC1=O` (stereo not drawn) had a logP of -0.35. With `Cc1c(NCC(C)C)c(=O)n(-c2ccccc2)c(=O)n1C` the figure was 1.48. `COc1cccc2c1C(=O)c1c(O)c3c(c(O)c1C2=O)CC(O)(C(=O)CO)CC3O` (stereo not drawn) returned a logP of 2.74.

In the case of `CNC(=S)NCC(F)(F)C(F)(F)C(F)(F)F`, the logP stood at 1.99. `CC(=O)Nc1ccc2nccnc2c1`: the logP was determined as 1. `COC1OC(CNC(=O)N(C)N=O)C(O)C(O)C1O` (stereo not drawn) displayed a logP of -1.57. The value for `Nc1nc(N)c2ncn(COCCO)c2n1` was -1.06; that for `CC(=O)Nc1ccc(CN(C)N=Nc2ccc(C(=O)O)cc2)cc1` was 3.35. In the case of `N#CN=Nc1ccccc1`, the logP is 2.3. `Cc1cccc(C)c1NC(=O)c1cccc(CN2CCCC2)c1` came in with a logP of 3.1. The molecule `CC1(C)OC2CC3C4CC(F)C5=CC(=O)C(Cl)=CC5(C)C4(F)C(O)CC3(C)C2(C(=O)CO)O1` (stereo not drawn) displayed a logP of 2.99. For the molecule `O=S1(=O)NC(C2=CCCC2)=Nc2ccccc21`, the logP was found to be 1.69.

`O=[N+]([O-])c1ccc(OCCn2ccnn2)cc1` came in with a logP of 1.19. As for `CCC(C)N=C=S` (stereo not drawn), the logP is 2.81. With `c1ccn2nnnc2c1` the figure was -0.09; with `CN(C)N=CCCc1ccccc1`, 2.05. With `COc1cc(C=NO)ccc1OCCO` the figure was 0.82; with `CCCCCCCCCCCCCCCC(=O)OCC1OC(n2ccc(N)nc2=O)C(O)C1O` (stereo not drawn), 5.03. With `CCOC(=O)CNCCCCCSc1c2[nH]cnc2nc[n+]1[O-]` the figure was 0.87; with `COc1ccc(Cc2cnc(N)nc2N)c(OC)c1OC`, 1.52; with `C#CCCC(=O)N(C)c1ccc(S(=O)(=O)N(C)C)cc1`, 0.88. `Cc1c(N2CCCC2)c(=O)n(-c2ccccc2)c(=O)n1C` yielded a logP of 2.26. `CN=C=S`: the logP turned out to be 0.94. Turning to `Cc1oc2ccccc2c(=O)c1C`, the logP is 2.31. The value for `O=c1[nH]cc(I)c(=O)[nH]1` was 0.04; that for `COc1ccccc1C=CC(=O)OCCOc1ccc(C=O)cc1OC` was 3.65; that for `CC(=O)OCC1OC(NC(=O)N(CCCl)N=O)C(OC(C)=O)C(OC(C)=O)C1OC(C)=O` (stereo not drawn) was 1.04. The value for `c1ccc(Cc2nn[nH]n2)cc1` was 1.36; that for `CCC(C)NC(=O)C(=Cc1ccccc1)Sc1ccccc1` (stereo not drawn) was 4.36. Regarding `Cc1csc(N=C(N)N)n1`, the logP stood at 1.24. `COc1cc(C=NO)ccc1OCCOC(=O)c1ccc(Cl)cc1` yielded a logP of 3.92. `Cc1ccc(S(=O)(=O)Oc2ccccc2C(=O)N(C)C)cc1` yielded a logP of 2.01.

`Cc1c(-c2ccccc2)oc2ccccc2c1=O` registered a logP of 3.92. In turn, `CSC(=O)Nc1ccc(Cl)c(Cl)c1` gave a logP of 4.23. `CC(C)(C)/[N+]([O-])=C/c1ccccc1` came in with a logP of 1.26.

`O=NN(CCCl)C(=O)NC1CCC(NC(=O)N(CCCl)N=O)CC1` (stereo not drawn): the logP is 2.74. With `CCC[Si](C)(C)C` the figure was 3.84; with `O=S(=O)(NO)c1ccccc1`, 0.48; with `O=C(O)c1cc(=O)c2c(OCC(O)COc3cccc4oc(C(=O)O)cc(=O)c34)cccc2o1`, 1.92. On to `CC(C)C(NC(=O)OCc1ccccc1)C(=O)NC(Cc1ccc(O)cc1)C(=O)O` (stereo not drawn) (Cbz-Val-Tyr-OH; configuration not given here), for which the logP was determined as 2.43.

A word on the logP: it is a log measure of how a compound divides between an organic and an aqueous phase. A lower logP goes with lower lipophilicity.
